Reference: patent publication US20070072931A1, “Pharmaceutical composition and a method for treatment of prostate cancer” (priority 2005, published 2007)
“Also recorded” adds a separate entry of the source.

Experiments:
[1] = test system: PC-3 cells; experiment: Viability of PC-3 by MTT assay (CellTiter 96 AQueous One); assay type: cell-based, human; details: mahanine 1, 2, 3 μg/ml vs untreated cells
Protocol: Human prostate cancer cell line, PC-3 (PTEN-ve, androgen independent) from American Type Culture Collection, Manassas, Va., USA was used. Cells were grown in Dulbecco's Modified Eagle Medium (DMEM) supplemented with 10% Fetal Bovine Serum (FBS) and 1% antibiotic-antimycotic. Cells were cultured in 37° C. in an atmosphere of 5% CO2.
Viability of PC-3 after treatment as at the indicated times was determined by MTT assay—CellTiter 96® AQoueus One Solution Cell Proliferation Assay (Promega Corp., Madison, Wis.), as per manufacturer's protocol. Briefly, 10,000 cells were plated in triplicate in 96 well plates and incubated for 12 hrs in complete media. […] Absorbance was recorded at 490 nm with 96 well plate readers. Reference wavelength of 630 nm was used to reduce background contributed by non-specific absorbance due to cell debris. […]
Viability of PC-3 after treatment as at the indicated times was determined by MTT assay—CellTiter 96® AQoueus One Solution Cell Proliferation Assay (Promega Corp., Madison, Wis.), as per manufacturer's protocol.
Briefly, 10,000 cells were plated in triplicate in 96 well plates and incubated for 12 hrs in complete media. […] Absorbance was recorded at 490 nm with 96 well plate readers. Reference wavelength of 630 nm was used to reduce background contributed by non-specific absorbance due to cell debris.

[2] = test system: LNCaP cells; experiment: Cell killing / viability of androgen dependent prostate cancer cell line LNCaP; assay type: cell-based; details: mahanine 1, 2, 3 μg/ml vs untreated cells
Protocol: FIG. 2 is a graph showing dose response of PC-3 and LNCaP cell line to mahanine. […] The dose used was 1, 2, 3 μg/ml in comparison to control untreated cells (0) in both the cell lines.

[3] = test system: hepatocytes; experiment: Cell viability, primary culture of rat neonatal hepatocytes; assay type: cell-based; details: 9 μg/ml
Protocol: (§1) The hepatocytes from 2-day-old neonatal rats were isolated by method described previously by William E. Russell (1997) with modifications. Briefly, the livers were perfused through the portal vein with a calcium-free solution consisting of 150 mM NaCl, 2.8 mM KCl, 5.5 mM glucose, and 25 mM HEPES (pH 7.6) for 10 minutes, followed by mincing and digestion in DMEM containing 0.05% collagenase type IV for 30 minutes. The cells were centrifuged (2000 g, 10 minutes) and dispersed in DMEM enriched with 10% FBS, 1% antibiotic-antimycotic.
The hepatocytes from 2-day-old neonatal rat were isolated by method described previously by William E Russell (1997) with modifications.
as §1, with “Briefly,” for “The hepatocytes from 2-day-old neonatal rats were isolated by method described previously by William E. Russell (1997) with modifications. Briefly,”
(§2) To evaluate the specificity of mahanine, its effect on other cells in primary culture, such as, hepatocytes, cardiomyocyte and skeletal muscle was examined.

[4] = test system: cardiomyocytes; experiment: Cell viability, primary culture of rat neonatal cardiomyocytes; assay type: cell-based; details: 9 μg/ml
Protocol: (§3) The cardiomyocytes from 2-day-old neonatal rat were isolated by the method previously described by Yoshihiro Kimura (1994) with modifications. Briefly, heart was excised and minced in pre warmed (37° C.) Ads buffer (1.2M NaCl, 198 mM HEPES, 54 mM KCl, 8.3 mM MgSO4, 55.4 mM glucose, 95 mM NaH2PO4), digested in type II Collagenase 0.05% and Pancreatin in three successive digestions of 15 minutes each. Supernatant was pooled and cells palleted at 2000 g, for 10 minutes. Cells were resuspended and plated in collagen coated T-25 flasks in Medium-199 enriched with 10% FBS and 1% antibiotic-antimycotic.
as §3, with “Briefly, the” for “Briefly,”, “pre-warmed” for “pre warmed”, “3-succesive” for “three successive”, “g,” for “g, for”
as §2

[5] = test system: skeletal muscle cells; experiment: Cell viability, primary culture of neonatal rat skeletal muscle; assay type: cell-based; details: 9 μg/ml
Protocol: The skeletal muscles from 2-day-old neonatal rats were isolated by method described previously by William E. Russell (1997) with modifications. Briefly, Soleus muscle was dissected, minced and digested with 0.2% Type II Collagenase and 0.05% trypsin in PBS pH 7.4, 0.15M NaCl. The dispersed skeletal muscle cells were centrifuged (100 g, 10 minutes) washed and resuspended in PBS with 1% antibiotic-antimycotic. Cells were preincubated for 30 minutes at 37° C., 95% air/5% CO2. The floating muscle cells were plated on collagen coated T-25 flasks in DMEM enriched with 10% FBS and 1% antibiotic-antimycotic.
The skeletal muscles from 2-day-old neonatal rat were isolated by method described previously by William E. Russell (1997) with modifications.
Briefly, Soleus muscles were dissected, minced and digested with 0.2% Type II Collagenase and 0.05% trypsin in PBS, pH 7.4, 0.15M NaCl. The dispersed skeletal muscle cells were centrifuged (1000 g, 10 minutes) washed and re-suspended in PBS with 1% antibiotic-antimycotic. Cells were preincubated for 30 minutes at 37° C., 95% air/5% CO2. The floating muscle cells were plated on collagen coated T-25 flasks in DMEM enriched with 10% FBS and 1% antibiotic-antimycotic.
as §2

[6] = Acute toxicity as per WHO guidelines, haematological and biochemical parameters; assay type: in vivo, Mice; Balb/C
Protocol: Experiments for acute toxicity were performed as per the guidelines of WHO.
Experimental subject: Mice; Balb/C Male, female; 25 gms body weight (approx).
16 mice were divided into 2 groups; 8 animals received the dosage of @2 gm/kg body weight of combined extract. Equal volume of the vehicle (DMSO) was given to 8 animals, wherein the dose was administered orally once and then animals were sacrificed and haematological parameters checked 15 days after treatment.
Experimental subject: Mice; Balb/C Male; female; 25 gms body weight (approx).
16 mice were divided into 2 groups 8 animals were received the compound @2 gm/kg body weight. Equal volume of the vehicle (DMSO) was given to 8 animals, wherein the dose was administered orally once, and then animals were sacrificed and haematological and biochemical parameters checked 15 days after treatment.
Biochemical parameters were assessed for the pure molecule mahanine. Since it is a pure molecule there is a need to see the biochemical profile, therefore we concentrated on the biochemical parameters only. The experimental procedure followed was the same as that for the combined extract described above.

[7] = test system: Akt; experiment: Immunoblotting of Akt and pAkt (ser 473) in PC-3 cells; assay type: cell-based, human
Protocol: (§4) PC-3 cells (1×10^6 cells) were incubated with complete medium. Cells were detached using cell dissociation reagent from Sigma Chemical company St Louis, Mo., USA. They were collected by centrifugation at 1500 g for 10 minutes and boiled for 5-7 minutes in sodium dodecyl sulphate (SDS) buffer (pH 6.8). Aliquots containing 60 μg total cellular protein were separated by 10% SDS-PAGE and transferred to PVDF membrane (MILIPORE, Bedford, Mass., USA). Membrane was blocked with blocking buffer for 1 hr at room temperature and probed with desired primary antibody caspase 9, Bcl-xl, pAkt/1/2/3(ser 473), anti PARP, Cytochrome C (Santa-Cruz Biotechnology, Inc. USA). Anti caspase 3 that recognizes procaspase 3 (32 kDa) and the active cleaved caspase 3 (17 kDa) (BD Biosciences, Mountainview, Calif.). Akt, cleaved caspase 9 (Cell Signaling technology, Beverly, Mass.) overnight at 4° C. followed by alkaline phosphatase conjugated secondary antibody and detection.
PC-3 cells (1×10^6 cells) were incubated with complete medium alone or with 3 μg/ml of Mahanine (MK-3) as indicated. Cells were detached using cell dissociation reagent from Sigma Chemical company St Louis, Mo., USA. The cells were collected by centrifugation at 1500 g for 10 minutes and boiled for 5-7 minutes in SDS buffer (pH 6.8). Aliquots containing 60 μg total cellular protein were separated by 10% SDS-PAGE and transferred to PVDF membrane (MILIPORE, Bedford, Mass., USA). Membrane was blocked with blocking buffer for 1 hr at room temperature and probed with desired primary antibody caspase 9, Bcl-xl, pAkt/1/2/3(ser 473), anti PARP, Cytochrome C (Santa-Cruz Biotechnology Inc., USA). Anti-caspase 3 that recognizes procaspase 3 (32 kDa) and the active cleaved caspase 3 (17 kDa) (BD Biosciences, Mountainview, Calif.) were also used. Akt, cleaved caspase 9 (Cell Signaling Technology, Beverly, Mass.) overnight at 4° C. followed by alkaline phosphatase conjugated secondary antibody and detection.

[8] = test system: Bcl-xl; experiment: Immunoblotting of Bcl-xl expression in PC-3 cells; assay type: cell-based, human; details: 36 hrs (mahanine 3 μg/ml)
Protocol: as §4
(§5) PC-3 cells (1×10^6 cells) were incubated with complete medium alone or with 3 μg/ml of Mahanine (MK-3) as indicated. Cells were detached using cell dissociation reagent from Sigma Chemical company St Louis, Mo., USA. The cells were collected by centrifugation at 1500 g for 10 minutes and boiled for 5-7 minutes in SDS buffer (pH 6.8). […]

[9] = test system: caspase 9; experiment: Immunoblotting of caspase 9 activation in PC-3 cells; assay type: cell-based, human; details: 3 μg/ml
Protocol: as §4, §5

[10] = test system: caspase 3; experiment: Immunoblotting of caspase 3 activation in PC-3 cells; assay type: cell-based, human
Protocol: as §4, §5

[11] = test system: PARP; experiment: Immunoblotting of PARP cleavage in PC-3 cells; assay type: cell-based, human; details: 3 μg/ml
Protocol: as §4, §5

[12] = test system: cytochrome c; experiment: Immunofluorescence of cytochrome c release in PC-3 cells; assay type: cell-based, human
Protocol: Cells were cultured on glass cover slips. Both control and treated cells were fixed with PBS containing 4% paraformaldehyde for 2 hrs at 4° C. The cells were permiabilized with 0.1% Triton X-100 in PBS and then incubated with rabbit polyclonal anti-cytochrome c antibody (Santa Cruz, USA, dilution 1:50) for 3 hrs followed by incubation with FITC-conjugated secondary antibody (goat anti-rabbit, Santa Cruz, 1:50) for another 1 hr with rigorous washing in all the above steps with PBS. 1 μg/ml DAPI was also added in each set. The stained cells were observed under fluorescence microscope (Olympus BX51 microscope, Tokyo, Japan) and the images were captured with Cool Snap Pro camera.

mahanine
killing / apoptosis of androgen independent cell line PC-3 [1]: in a dose and time dependent manner | killing / apoptosis of androgen independent cell line PC-3 ([1]; listed as mahanine): in a time and dose dependent manner | killing / apoptosis of androgen dependent cell line LNCaP [2]: in a dose and time dependent manner | killing of hepatocytes in primary culture [3]: did not kill | killing of cardiomyocytes in primary culture [4]: did not kill | killing of skeletal muscle cells in primary culture [5]: did not kill | indication of toxicity in treated mice ([6]; Balb/C mice, 2 gm/kg orally once, 15 days after treatment): no indication of any toxicity | Creatinine ([6]; Balb/C mice, 2 gm/kg orally once, 15 days after treatment, vehicle control 3.82): 3.72 mg/dL | Hb ([6]; Balb/C mice, 2 gm/kg orally once, 15 days after treatment, vehicle control 10.69): 10.713 gm/dl | SGPT ([6]; Balb/C mice, 2 gm/kg orally once, 15 days after treatment, vehicle control 32.0): 30.7 units/ml | Urea ([6]; Balb/C mice, 2 gm/kg orally once, 15 days after treatment, vehicle control 35.4): 48.6 mg/dL | WBC ([6]; Balb/C mice, 2 gm/kg orally once, 15 days after treatment, vehicle control 92): 89 | SGOT ([6]; Balb/C mice, 2 gm/kg orally once, 15 days after treatment, vehicle control 147.5): 174.0 units/ml | RBC ([6]; Balb/C mice, 2 gm/kg orally once, 15 days after treatment, vehicle control 1029): 1032 | change in acute toxicity data until 1 month ([6]; mice, until 1 month): no change | effect on steady state levels of Akt protein ([7]; PC-3 cells): no effect | inhibition of phosphorylation of Akt ([7]; PC-3 cells): in a dose and time dependent manner | time at which Akt serine 473 phosphorylation was inhibited ([7]; PC-3 cells (mahanine 3 μg/ml)): 24 h | time by which Akt activation was totally blocked ([7]; PC-3 cells (mahanine 3 μg/ml)): ≤ 36 h | Bcl-xl expression at 36 hrs [8]: significantly decreased; also recorded: considerably downregulated | earliest time at which cleaved caspase 9 could be detected [9]: 6 h | time course of cleaved caspase 9 [9]: steadily increased at 12 hrs and 24 hrs, and declined at 36 hrs | time of peak of caspase 3 activity ([10]; PC-3 cells (mahanine 3 μg/ml)): 60 h | activation of caspase 3 at 48 hrs ([10]; PC-3 cells, 48 hrs (mahanine 3 μg/ml)): considerably increased | time of maximum cleavage of PARP (89 kDa fragment) [11]: 36 h | leakage of cytochrome c from the mitochondria [12]: caused leakage of cytochrome c
